Target: T1, alpha-synuclein (αsyn) pre-formed fibrils (Homo sapiens, UniProt P37840)
T1 construct: gene SNCA; Full-length wildtype human αsyn, pre-formed amyloid fibrils (PFFs)
Assay: fluorescence titration of h-FTAA with […] recombinant fibrils, simulated binding curve; lifetime imaging (FLIM)

O=C(O)Cc1cc(-c2ccc(-c3ccc(C(=O)O)s3)s2)sc1-c1ccc(-c2sc(-c3ccc(-c4ccc(C(=O)O)s4)s3)cc2CC(=O)O)s1 [h-FTAA]
Kd: < 100 nM

Reference: paper PMC11594916, “In Vitro Cell Model Investigation of Alpha-Synuclein Aggregate Morphology Using Spectroscopic Imaging” (International Journal of Molecular Sciences, 2024)
